{"source": "patent US20220031625A1", "about": "“OPHTHALMIC COMPOSITIONS FOR DELIVERING MEIBUM-LIKE MATERIALS” (Altaire Pharmaceuticals, Inc., priority 2020, published 2022)", "system": "normal human keratinocytes/stratified squamous epithelium (EPIOCULAR model)", "assay": "Ocular irritation test - MTT assay on EPIOCULAR model", "type": "cell-based", "method": "Another Ocular Irritation Study was done by exposing a microemulsion containing polyoxyl 35 castor oil in accordance with an embodiment of the present disclosure onto normal human keratinocytes/stratified squamous epithelium which is similar to that found in the cornea epithelium of the human eye (EPIOCULAR model), and then checking tissue viability with MTT assay for cytoxicity after incubation in comparison with a water control (Cyprotex). The study design and results are summarized below in Table 7."}
{"smiles": "COC(C)=O", "note": "[Methyl Acetate]", "values": [{"measurement": "Irritation Response (Irritant if ≤60%)", "setting": "EPIOCULAR model", "result": "Positive"}, {"measurement": "Mean Tissue Viability", "setting": "in comparison with a water control", "result": 31.1, "unit": "%"}]}
